Legend:
[1] = test system: Human Umbilical Vein Endothelial Cell (HUVEC); assay: Inhibitory effect on growth of human umbilical vein endothelial cell (HUVEC), MTS; assay type: cell-based; details: 10 ng/ml VEGF, absorbance 490 nm
VEGFR2 (KDR) = VEGFR2 (KDR) (Homo sapiens (Human), UniProt P35968); assay: VEGFR2 (KDR) enzyme assay, fluorescence polarization; assay type: biochemical; details: 5 μM ATP, poly(Glu, Tyr) substrate
In short: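 Autophosphorylation read by fluorescence polarization: VEGFR2 (Proquinase) at 200 ng/10 μl with 5 μM ATP and 10 ng/ml poly(Glu,Tyr) 4:1, in 20 mM HEPES pH 7.4, 5 mM MgCl2, 2 mM MnCl2, 50 μM Na3VO4. Reaction 1 h at room temperature, EDTA stop, then anti-phosphotyrosine antibody/tracer for 30 min in the dark.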

EGFR1 (HER-1) = EGFR1 (HER-1) (Homo sapiens (Human), UniProt P00533); assay: EGFR1 (HER-1) enzyme assay, fluorescence polarization; assay type: biochemical; details: 100 μM ATP, poly(Glu, Tyr) substrate
[2] = test system: skin cancer cell line, A431; assay: Inhibitory effect on growth of cancer cell line A431, SRB; assay type: cell-based; details: overexpressed EGFR1 (HER-1)
In short: (§1)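 Cells were cultured in DMEM with 10% FBS. Compounds were applied at 10 μM with 10-fold serial dilution to 10^−4, DMSO <1%, for 72 h at 37 °C. Cells were then TCA-fixed and stained with 0.4% SRB, and absorbance was read at 570 nm after solubilisation in 10 mM Tris base.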

[3] = test system: breast cancer cell line, SK-Br3; assay: Inhibitory effect on growth of cancer cell line SK-Br3, SRB; assay type: cell-based; details: overexpressed EGFR2 (HER-2)
In short: as §1

[4] = test system: colon and rectal cancer cell line, SW-620; assay: Inhibitory effect on growth of cancer cell line SW-620, SRB; assay type: cell-based; details: not having overexpressed EGFR and EGFR2
In short: as §1

VEGFR2 (KDR), sequence (P35968 20-1356): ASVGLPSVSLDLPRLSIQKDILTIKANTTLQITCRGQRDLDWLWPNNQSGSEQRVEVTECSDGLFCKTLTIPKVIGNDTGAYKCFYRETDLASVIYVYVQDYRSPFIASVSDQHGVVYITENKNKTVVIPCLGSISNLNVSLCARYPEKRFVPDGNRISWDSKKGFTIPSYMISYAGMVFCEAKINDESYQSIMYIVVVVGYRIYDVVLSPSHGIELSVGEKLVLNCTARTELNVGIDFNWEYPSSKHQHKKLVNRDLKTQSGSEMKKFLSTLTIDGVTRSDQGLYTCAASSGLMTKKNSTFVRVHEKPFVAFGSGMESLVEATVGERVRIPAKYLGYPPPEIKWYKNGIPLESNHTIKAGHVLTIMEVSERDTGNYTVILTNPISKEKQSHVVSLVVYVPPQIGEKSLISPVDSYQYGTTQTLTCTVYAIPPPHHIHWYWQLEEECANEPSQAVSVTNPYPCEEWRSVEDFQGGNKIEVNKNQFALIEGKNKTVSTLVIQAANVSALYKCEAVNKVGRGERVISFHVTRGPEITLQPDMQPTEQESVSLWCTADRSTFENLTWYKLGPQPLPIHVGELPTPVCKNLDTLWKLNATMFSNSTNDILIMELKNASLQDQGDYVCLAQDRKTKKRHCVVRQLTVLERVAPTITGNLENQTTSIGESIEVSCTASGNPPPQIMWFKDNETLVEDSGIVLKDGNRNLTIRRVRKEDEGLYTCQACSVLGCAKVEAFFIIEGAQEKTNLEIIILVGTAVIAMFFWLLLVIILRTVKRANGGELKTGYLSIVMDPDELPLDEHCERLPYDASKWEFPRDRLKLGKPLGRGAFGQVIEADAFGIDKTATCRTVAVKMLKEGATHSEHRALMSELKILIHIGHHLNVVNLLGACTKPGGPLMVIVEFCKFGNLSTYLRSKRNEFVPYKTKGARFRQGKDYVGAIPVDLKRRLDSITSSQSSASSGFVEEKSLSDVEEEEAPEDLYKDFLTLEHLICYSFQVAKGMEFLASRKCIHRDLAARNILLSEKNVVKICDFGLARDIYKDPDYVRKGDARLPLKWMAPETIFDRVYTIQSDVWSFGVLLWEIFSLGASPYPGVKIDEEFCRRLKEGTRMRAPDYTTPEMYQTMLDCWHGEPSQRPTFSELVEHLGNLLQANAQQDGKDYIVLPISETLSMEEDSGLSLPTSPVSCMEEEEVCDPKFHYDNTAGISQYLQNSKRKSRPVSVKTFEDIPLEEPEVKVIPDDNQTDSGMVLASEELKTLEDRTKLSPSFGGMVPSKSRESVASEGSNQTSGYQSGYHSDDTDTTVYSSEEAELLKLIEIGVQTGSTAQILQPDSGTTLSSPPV

Row | IC50 (VEGFR2 (KDR)) | IC50 (EGFR1 (HER-1)) | IC50 ([2]; Homo sapiens, A-431, 72 h) | IC50 ([3]; Homo sapiens, SK-BR-3, 72 h) | IC50 ([4]; Homo sapiens, 72 h) | Compound | IC50 ([1]; Homo sapiens, 96 h) | IC50 ([1]; 96 hours) | IC50 ([2]; 72 hours) | IC50 ([3]; 72 hours) | IC50 ([4]; 72 hours)
1 | 250 nM | 4 nM | 40 nM | 75 nM | 7600 nM | C=CC(=O)Nc1cc2c(Nc3ccc(Br)cc3F)ncnc2cc1OCCNC(N)=O [Example 24, N-[4-(4-bromo-2-fluoro-phenylamino)-7-(2-ureido-ethoxy)-quinazolin-6-yl]-acrylamide] | 90 nM |  |  |  | 
2 | 259 nM | 25 nM | 31 nM | 198 nM | 4550 nM | C=CC(=O)Nc1cc2c(Nc3ccc(Br)cc3F)ncnc2cc1OCCOC [Example 32, N-[4-(4-bromo-2-fluoro-phenylamino)-7-(2-methoxy-ethoxy)-quinazolin-6-yl]-acrylamide] | 350 nM |  |  |  | 
3 | 268 nM | 49 nM | 58 nM | 289 nM | 2200 nM | C=CC(=O)Nc1cc2c(Nc3ccc(Cl)cc3Cl)ncnc2cc1OCCNC(C)=O [Example 113, N-[7-(2-acetylamino-ethoxy)-4-(4-chloro-2-chloro-phenylamino)-quinazolin-6-yl]-acrylamide] | 369 nM |  |  |  | 
4 | 154 nM | 3 nM | 11 nM | 64 nM | 2020 nM | C=CC(=O)Nc1cc2c(Nc3ccc(Br)cc3F)ncnc2cc1OCCCNC [Example 17, N-[4-(4-bromo-2-fluoro-phenylamino)-7-(3-methylamino-propoxy)-quinazolin-6-yl]-acrylamide] | 87 nM |  |  |  | 
5 | 197 nM | 36 nM | 46 nM | 53 nM | 10000 nM | C=CC(=O)Nc1cc2c(Nc3ccc(Br)cc3F)ncnc2cc1OCCNC(=O)N1CCOCC1 [Example 93, morpholine-4-carboxylic acid {2-[6-acryloylamino-4-(4-bromo-2-fluoro-phenylamino)-quinazolin-7-yloxy]-ethyl}-amide] | 269 nM |  |  |  | 
6 | 87 nM | 19 nM | 11 nM | 7 nM | 2810 nM | C=CC(=O)Nc1cc2c(Nc3ccc(Br)c(Cl)c3F)ncnc2cc1OCCNC(=O)CN(C)C [Example 143, N-{4-(4-bromo-3-chloro-2-fluoro-phenylamino)-7-[2-(2-dimethylamino-acetylamino)-ethoxy]-quinazolin-6-yl}-acrylamide] | 239 nM |  |  |  | 
7 | 148 nM | 13 nM | 20 nM | 149 nM | 2530 nM | C=CC(=O)Nc1cc2c(Nc3c(F)cc(Br)cc3F)ncnc2cc1OCC1CCN(C(C)=O)CC1 [Example 8, N-[7-(1-acetyl-piperidin-4-ylmethoxy)-4-(4-bromo-2,6-difluoro-phenylamino)-quinazolin-6-yl]-acrylamide] | 98 nM |  |  |  | 
8 | 55 nM | 6 nM | 8 nM | 330 nM | 2760 nM | C=CC(=O)Nc1cc2c(Nc3ccc(Br)cc3F)ncnc2cc1OCC1CCN(C(=O)CN(C)C)CC1 [Example 10, N-{4-(4-bromo-2-fluoro-phenylamino)-7-[1-(2-dimethylamino-acetyl)-piperidin-4-ylmethoxy]-quinazolin-6-yl}-acrylamide] | 49 nM |  |  |  | 
9 | 500 nM | 23 nM | 76 nM | 233 nM | 9680 nM | C=CC(=O)Nc1cc2c(Nc3ccc(Br)cc3F)ncnc2cc1OCCNC(=O)C(F)(F)F [Example 28, N-[4-(4-bromo-2-fluoro-phenylamino)-7-[2-(2,2,2-trifluoro-acetylamino)-ethoxy]-quinazolin-6-yl]-acrylamide] | 977 nM |  |  |  | 
10 | 249 nM | 24 nM | 35 nM | 110 nM | 9550 nM | C=CC(=O)Nc1cc2c(Nc3ccc(Br)cc3F)ncnc2cc1OCC(C)NC(=O)CCN(CC)CC (stereo not drawn) [Example 155, N-{4-(4-bromo-2-fluoro-phenylamino)-7-[2-(3-diethylamino-propionylamino)-propoxy]-quinazolin-6-yl}-acrylamide] | 314 nM |  |  |  | 
11 | 279 nM | 956 nM |  |  |  | N-{2-[6-acryloylamino-4-(4-bromo-2-fluoro-phenylamino)-quinazolin-7-yloxy]-ethyl}-malonic acid [Example 70] |  | 365 nM | 973 nM | 10000 nM | 9570 nM
12 | 698 nM | 40 nM | 44 nM | 288 nM | 10000 nM | C=CC(=O)Nc1cc2c(Nc3ccc(Br)cc3F)ncnc2cc1OCCCNC(=O)CC [Example 87, N-[4-(4-bromo-2-fluoro-phenylamino)-7-(3-propionylamino-propoxy)-quinazolin-6-yl]-acrylamide] | 692 nM |  |  |  | 
13 | 945 nM | 14 nM | 16 nM | 93 nM | 5260 nM | C=CC(=O)Nc1cc2c(Nc3ccc(Br)cc3F)ncnc2cc1OCCNC(=O)CCN1CCCCC1 [Example 104, N-{4-(4-bromo-2-fluoro-phenylamino)-7-[2-(3-piperidin-1-yl-propionylamino)-ethoxy]-quinazolin-6-yl}-acrylamide] | 855 nM |  |  |  | 
14 | 136 nM | 18 nM | 19 nM | 60 nM | 2680 nM | C=CC(=O)Nc1cc2c(Nc3ccc(Br)c(F)c3F)ncnc2cc1OCCNC(=O)CN(C)C [Example 124, N-{4-(4-bromo-2,3-difluoro-phenylamino)-7-[2-(2-dimethylamino-acetylamino)-ethoxy]-quinazolin-6-yl}-acrylamide] | 268 nM |  |  |  | 
15 | 206 nM | 28 nM |  |  |  | N-{2-[6-acryloylamino-4-(4-bromo-3-chloro-2-fluoro-phenylamino)-quinazolin-7-yloxy]-ethyl}-4-dimethylamino-butylamide [Example 148] |  | 348 nM | 30 nM | 40 nM | 2320 nM
16 | 654 nM | 25 nM | 30 nM | 100 nM | 6700 nM | C=CC(=O)Nc1cc2c(Nc3ccc(Br)cc3F)ncnc2cc1OCCNC(=O)C1CCCN1C(C)=O (stereo not drawn) [Example 105, 1-acetyl-pyrrolidine-2-carboxylic acid {2-[6-acryloylamino-4-(4-bromo-2-fluoro-phenylamino)-quinazolin-7-yloxy]-ethyl}-amide] | 654 nM |  |  |  | 
17 | 513 nM | 8 nM | 20 nM | 36 nM | 7900 nM | C=CC(=O)Nc1cc2c(Nc3ccc(Br)cc3F)ncnc2cc1OCCNC(=O)C1CC1 [Example 21, cyclopropane carboxylic acid {2-[6-acrylamino-4-(4-bromo-2-fluoro-phenylamino)-quinazolin-7-yloxy]-ethyl}-amide] | 951 nM |  |  |  | 
18 | 77 nM | 36 nM | 41 nM | 211 nM | 10000 nM | C=CC(=O)Nc1cc2c(Nc3ccc(Br)cc3F)ncnc2cc1OC(C)CNC(C)=O (stereo not drawn) [Example 80, N-[7-(2-acetylamino-1-methyl-ethoxy)-4-(4-bromo-2-fluoro-phenylamino)-quinazolin-6-yl]-acrylamide] | 109 nM |  |  |  | 
19 | 895 nM | 36 nM | 31 nM | 65 nM | 4540 nM | C=CC(=O)Nc1cc2c(Nc3ccc(Br)cc3F)ncnc2cc1OCCNC(=O)NC(C)C [Example 37, N-{4-(4-bromo-2-fluoro-phenylamino)-7-[2-(3-isopropyl-ureido)-ethoxy]-quinazolin-6-yl}-acrylamide] | 682 nM |  |  |  | 
20 | 347 nM | 2 nM | 17 nM | 157 nM | 2500 nM | C=CC(=O)Nc1cc2c(Nc3ccc(Br)cc3F)ncnc2cc1OCCCNC(=O)CN(C)C [Example 12, N-{4-(4-bromo-2-fluoro-phenylamino)-7-[3-(2-dimethylamino-acetylamino)-propoxy]-quinazolin-6-yl}-acrylamide] | 156 nM |  |  |  | 

Row | Compound | IC50 (VEGFR2 (KDR)) | IC50 (EGFR1 (HER-1)) | IC50 ([2]; Homo sapiens, A-431, 72 h) | IC50 ([3]; Homo sapiens, SK-BR-3, 72 h) | IC50 ([4]; Homo sapiens, 72 h) | IC50 ([1]; Homo sapiens, 96 h) | IC50 ([1]; 96 hours) | IC50 ([2]; 72 hours) | IC50 ([3]; 72 hours) | IC50 ([4]; 72 hours)
21 | C=CC(=O)Nc1cc2c(Nc3ccc(Br)c(F)c3)ncnc2cc1OCCNC(=O)CN(C)C [Example 79, N-4-(4-bromo-3-fluoro-phenylamino)-7-[2-(2-dimethylamino-acetylamino)-ethoxy]-quinazolin-6-yl-acrylamide] | 1430 nM | 78 nM |  |  |  |  | 723 nM | 84 nM | 313 nM | 10000 nM
22 | C=CC(=O)Nc1cc2c(Nc3ccc(Br)c(Cl)c3F)ncnc2cc1OC[C@H](C)NC(=O)CN(C)C [Example 163, (S)—N-4-(4-bromo-3-chloro-2-fluoro-phenylamino)-7-[2-(2-dimethylamino-acetylamino)-propoxy]-quinazolin-6-yl-acrylamide] | 722 nM | 12 nM |  |  |  |  | 735 nM | 18 nM | 45 nM | 10000 nM
